pIC50: −log10 of the molar value.
target: Tyrosine-protein kinase ABL1 (Homo sapiens, UniProt P00519); assay: Inhibition of full-length human His-tagged ABL1 expressed in baculovirus expression system by Z'-LYTE assay
Sequence (P00519 whole entry): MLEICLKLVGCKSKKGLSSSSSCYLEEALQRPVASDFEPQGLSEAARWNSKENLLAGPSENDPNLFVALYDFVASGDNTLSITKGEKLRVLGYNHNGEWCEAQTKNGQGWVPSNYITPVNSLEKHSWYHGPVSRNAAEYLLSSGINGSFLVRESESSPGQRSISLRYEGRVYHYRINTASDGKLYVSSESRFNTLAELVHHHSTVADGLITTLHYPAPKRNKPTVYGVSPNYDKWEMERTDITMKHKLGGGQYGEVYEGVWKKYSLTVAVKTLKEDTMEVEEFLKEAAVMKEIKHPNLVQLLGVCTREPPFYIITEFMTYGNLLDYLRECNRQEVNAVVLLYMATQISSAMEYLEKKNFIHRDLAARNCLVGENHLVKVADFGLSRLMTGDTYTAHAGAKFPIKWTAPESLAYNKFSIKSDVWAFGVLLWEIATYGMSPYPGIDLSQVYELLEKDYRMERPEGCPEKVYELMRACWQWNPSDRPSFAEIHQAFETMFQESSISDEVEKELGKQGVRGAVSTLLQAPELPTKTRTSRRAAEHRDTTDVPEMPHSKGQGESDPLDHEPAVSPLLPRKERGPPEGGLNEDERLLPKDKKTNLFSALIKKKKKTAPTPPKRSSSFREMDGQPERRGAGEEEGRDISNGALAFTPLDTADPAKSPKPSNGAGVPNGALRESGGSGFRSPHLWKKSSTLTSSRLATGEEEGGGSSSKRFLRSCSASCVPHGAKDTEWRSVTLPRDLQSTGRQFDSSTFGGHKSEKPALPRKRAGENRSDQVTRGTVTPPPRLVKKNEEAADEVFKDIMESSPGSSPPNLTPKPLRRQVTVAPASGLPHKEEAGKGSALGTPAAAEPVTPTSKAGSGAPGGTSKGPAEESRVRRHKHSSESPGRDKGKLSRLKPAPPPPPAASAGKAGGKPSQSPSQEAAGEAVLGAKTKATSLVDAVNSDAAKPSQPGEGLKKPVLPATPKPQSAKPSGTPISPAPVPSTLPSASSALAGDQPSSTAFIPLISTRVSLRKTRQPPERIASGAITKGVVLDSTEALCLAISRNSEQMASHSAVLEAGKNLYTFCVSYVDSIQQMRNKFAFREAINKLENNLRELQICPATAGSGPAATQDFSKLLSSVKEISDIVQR

`Cn1cc(-c2cnc3c(-c4csc(C(=O)NCC(F)(F)F)c4)cnn3c2)cn1` and `Cn1cc(-c2cnc3c(-c4csc(C(=O)N[C@@H]5CCCC[C@@H]5N)c4)cnn3c2)cn1` (racemic) cannot be ordered by pIC50: greater than 8.00 for the first, 8.89 for the second.

Going from `Cc1sc(C(=O)N[C@@H]2[C@H](N)CCCC2(F)F)cc1-c1cnn2cc(Cl)cnc12` to `O=C(NCC(F)(F)F)c1cc(-c2cnn3cc(-c4ccc(OCCN5CCCCC5)cc4)cnc23)cs1`, the pIC50 rises from 5.04 to greater than 8.00. The second is the more potent here.

target: T1, Ephrin type-A receptor 3 (Homo sapiens, UniProt P29320); assay: Inhibition of recombinant human His-tagged cytoplasmic EPHA3 expressed in baculovirus expression system by LanthaScreen assay
T1 sequence (P29320 whole entry): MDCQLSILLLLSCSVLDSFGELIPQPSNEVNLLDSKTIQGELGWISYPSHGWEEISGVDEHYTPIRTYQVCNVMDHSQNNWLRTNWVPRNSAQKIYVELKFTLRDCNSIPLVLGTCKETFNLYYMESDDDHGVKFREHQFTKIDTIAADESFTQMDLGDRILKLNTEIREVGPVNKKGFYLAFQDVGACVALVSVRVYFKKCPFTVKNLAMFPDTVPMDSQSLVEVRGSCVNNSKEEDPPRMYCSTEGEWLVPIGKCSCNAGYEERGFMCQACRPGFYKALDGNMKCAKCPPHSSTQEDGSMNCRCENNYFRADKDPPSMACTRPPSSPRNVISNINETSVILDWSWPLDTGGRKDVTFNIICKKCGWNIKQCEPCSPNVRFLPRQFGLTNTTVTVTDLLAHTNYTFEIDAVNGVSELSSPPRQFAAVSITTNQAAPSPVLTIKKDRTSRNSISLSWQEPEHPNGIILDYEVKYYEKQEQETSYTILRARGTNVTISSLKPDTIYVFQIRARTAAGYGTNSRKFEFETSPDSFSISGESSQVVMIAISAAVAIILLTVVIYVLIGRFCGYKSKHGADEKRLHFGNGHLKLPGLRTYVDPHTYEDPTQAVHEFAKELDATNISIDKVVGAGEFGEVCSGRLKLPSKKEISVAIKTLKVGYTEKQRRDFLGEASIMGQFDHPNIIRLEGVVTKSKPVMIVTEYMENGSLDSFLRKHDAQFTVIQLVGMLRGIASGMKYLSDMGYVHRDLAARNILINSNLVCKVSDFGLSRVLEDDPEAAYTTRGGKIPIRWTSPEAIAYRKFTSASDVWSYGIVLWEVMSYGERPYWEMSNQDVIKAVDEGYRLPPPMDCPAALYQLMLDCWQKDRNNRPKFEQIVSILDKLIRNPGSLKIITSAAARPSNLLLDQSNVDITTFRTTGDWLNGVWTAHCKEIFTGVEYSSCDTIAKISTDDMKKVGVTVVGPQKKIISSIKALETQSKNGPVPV

Going from `Cn1cc(-c2cnc3c(-c4csc(C(=O)NCC(F)(F)F)c4)cnn3c2)cn1` to `Cn1cc(-c2cnc3c(-c4csc(C(=O)N[C@@H]5CCCC[C@@H]5N)c4)cnn3c2)cn1` (racemic), the pIC50 rises from 7.28 to 7.66 (0.38 log units).

First: Cc1sc(C(=O)N[C@@H]2[C@H](N)CCCC2(F)F)cc1-c1cnn2cc(Cl)cnc12
Second: O=C(NCC(F)(F)F)c1cc(-c2cnn3cc(-c4ccc(OCCN5CCCCC5)cc4)cnc23)cs1
The pIC50 of the first is lower: less than 4.00 for the first, 6.74 for the second. The second is the more potent here.

target: Aurora kinase B (Homo sapiens, UniProt Q96GD4); assay: Inhibition of full-length recombinant human His-tagged AURKB expressed in baculovirus expression system by LanthaScreen assay
Sequence (Q96GD4 whole entry): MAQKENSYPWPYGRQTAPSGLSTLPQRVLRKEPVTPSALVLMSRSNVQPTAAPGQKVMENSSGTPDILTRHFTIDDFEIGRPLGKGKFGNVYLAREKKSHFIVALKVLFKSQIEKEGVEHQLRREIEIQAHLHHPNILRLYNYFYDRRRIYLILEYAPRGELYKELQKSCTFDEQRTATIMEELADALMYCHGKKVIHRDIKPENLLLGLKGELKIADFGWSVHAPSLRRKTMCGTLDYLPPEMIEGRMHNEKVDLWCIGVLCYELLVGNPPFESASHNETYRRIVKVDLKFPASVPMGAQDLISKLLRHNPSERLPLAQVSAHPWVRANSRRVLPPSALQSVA

First: Cn1cc(-c2cnc3c(-c4csc(C(=O)NCC(F)(F)F)c4)cnn3c2)cn1
Second: Cn1cc(-c2cnc3c(-c4csc(C(=O)N[C@@H]5CCCC[C@@H]5N)c4)cnn3c2)cn1 (racemic)
The pIC50 of the first is higher: greater than 8.00 for the first, 7.55 for the second. The first is the more potent here.

First: Cc1sc(C(=O)N[C@@H]2[C@H](N)CCCC2(F)F)cc1-c1cnn2cc(Cl)cnc12
Second: O=C(NCC(F)(F)F)c1cc(-c2cnn3cc(-c4ccc(OCCN5CCCCC5)cc4)cnc23)cs1
The pIC50 of the first is 2.14 log units lower: 5.34 for the first, 7.48 for the second.

target: T2, Ephrin type-A receptor 8 (Homo sapiens, UniProt P29322); assay: Inhibition of recombinant human GST-tagged cytoplasmic EPHA8 expressed in baculovirus expression system by Z'-LYTE assay
T2 sequence (P29322 whole entry): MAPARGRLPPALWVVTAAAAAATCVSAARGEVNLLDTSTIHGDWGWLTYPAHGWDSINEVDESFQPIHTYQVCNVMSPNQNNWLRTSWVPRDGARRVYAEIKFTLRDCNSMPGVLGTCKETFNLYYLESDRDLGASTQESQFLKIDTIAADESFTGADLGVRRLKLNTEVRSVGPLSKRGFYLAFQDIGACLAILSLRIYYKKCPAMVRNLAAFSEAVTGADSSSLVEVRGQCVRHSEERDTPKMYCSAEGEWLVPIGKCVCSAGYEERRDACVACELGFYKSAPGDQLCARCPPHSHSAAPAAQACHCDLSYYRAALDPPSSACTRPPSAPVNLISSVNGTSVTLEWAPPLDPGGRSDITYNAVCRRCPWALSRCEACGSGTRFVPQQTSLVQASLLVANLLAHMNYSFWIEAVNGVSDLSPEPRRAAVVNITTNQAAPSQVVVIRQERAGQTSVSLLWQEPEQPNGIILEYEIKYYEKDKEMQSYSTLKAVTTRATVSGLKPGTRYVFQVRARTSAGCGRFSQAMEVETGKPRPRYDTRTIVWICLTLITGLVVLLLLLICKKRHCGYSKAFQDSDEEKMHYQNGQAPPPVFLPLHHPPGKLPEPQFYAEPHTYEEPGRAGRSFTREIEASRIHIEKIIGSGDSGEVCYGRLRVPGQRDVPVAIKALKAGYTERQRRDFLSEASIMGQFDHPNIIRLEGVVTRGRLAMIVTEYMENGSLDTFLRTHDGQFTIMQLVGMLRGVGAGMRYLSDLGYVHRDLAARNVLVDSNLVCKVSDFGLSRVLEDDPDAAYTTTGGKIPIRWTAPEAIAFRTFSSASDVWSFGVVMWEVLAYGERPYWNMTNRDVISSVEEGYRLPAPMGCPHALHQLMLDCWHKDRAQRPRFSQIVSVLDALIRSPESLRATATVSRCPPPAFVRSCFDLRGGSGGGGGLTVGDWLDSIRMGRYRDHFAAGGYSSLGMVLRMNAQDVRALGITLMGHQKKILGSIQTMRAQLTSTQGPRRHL

In order of rising pIC50:
1. Cc1sc(C(=O)N[C@@H]2[C@H](N)CCCC2(F)F)cc1-c1cnn2cc(Cl)cnc12  4.80
2. Cn1cc(-c2cnc3c(-c4csc(C(=O)NCC(F)(F)F)c4)cnn3c2)cn1  7.54
3. O=C(NCC(F)(F)F)c1cc(-c2cnn3cc(-c4ccc(OCCN5CCCCC5)cc4)cnc23)cs1  7.68
4. Cn1cc(-c2cnc3c(-c4csc(C(=O)N[C@@H]5CCCC[C@@H]5N)c4)cnn3c2)cn1 (racemic)  8.54

target: Misshapen-like kinase 1 (Homo sapiens, UniProt Q8N4C8); assay: Inhibition of recombinant human His-tagged MINK1 catalytic domain expressed in baculovirus expression system by Z'-LYTE assay
Sequence (Q8N4C8 whole entry, the tested form may be a part): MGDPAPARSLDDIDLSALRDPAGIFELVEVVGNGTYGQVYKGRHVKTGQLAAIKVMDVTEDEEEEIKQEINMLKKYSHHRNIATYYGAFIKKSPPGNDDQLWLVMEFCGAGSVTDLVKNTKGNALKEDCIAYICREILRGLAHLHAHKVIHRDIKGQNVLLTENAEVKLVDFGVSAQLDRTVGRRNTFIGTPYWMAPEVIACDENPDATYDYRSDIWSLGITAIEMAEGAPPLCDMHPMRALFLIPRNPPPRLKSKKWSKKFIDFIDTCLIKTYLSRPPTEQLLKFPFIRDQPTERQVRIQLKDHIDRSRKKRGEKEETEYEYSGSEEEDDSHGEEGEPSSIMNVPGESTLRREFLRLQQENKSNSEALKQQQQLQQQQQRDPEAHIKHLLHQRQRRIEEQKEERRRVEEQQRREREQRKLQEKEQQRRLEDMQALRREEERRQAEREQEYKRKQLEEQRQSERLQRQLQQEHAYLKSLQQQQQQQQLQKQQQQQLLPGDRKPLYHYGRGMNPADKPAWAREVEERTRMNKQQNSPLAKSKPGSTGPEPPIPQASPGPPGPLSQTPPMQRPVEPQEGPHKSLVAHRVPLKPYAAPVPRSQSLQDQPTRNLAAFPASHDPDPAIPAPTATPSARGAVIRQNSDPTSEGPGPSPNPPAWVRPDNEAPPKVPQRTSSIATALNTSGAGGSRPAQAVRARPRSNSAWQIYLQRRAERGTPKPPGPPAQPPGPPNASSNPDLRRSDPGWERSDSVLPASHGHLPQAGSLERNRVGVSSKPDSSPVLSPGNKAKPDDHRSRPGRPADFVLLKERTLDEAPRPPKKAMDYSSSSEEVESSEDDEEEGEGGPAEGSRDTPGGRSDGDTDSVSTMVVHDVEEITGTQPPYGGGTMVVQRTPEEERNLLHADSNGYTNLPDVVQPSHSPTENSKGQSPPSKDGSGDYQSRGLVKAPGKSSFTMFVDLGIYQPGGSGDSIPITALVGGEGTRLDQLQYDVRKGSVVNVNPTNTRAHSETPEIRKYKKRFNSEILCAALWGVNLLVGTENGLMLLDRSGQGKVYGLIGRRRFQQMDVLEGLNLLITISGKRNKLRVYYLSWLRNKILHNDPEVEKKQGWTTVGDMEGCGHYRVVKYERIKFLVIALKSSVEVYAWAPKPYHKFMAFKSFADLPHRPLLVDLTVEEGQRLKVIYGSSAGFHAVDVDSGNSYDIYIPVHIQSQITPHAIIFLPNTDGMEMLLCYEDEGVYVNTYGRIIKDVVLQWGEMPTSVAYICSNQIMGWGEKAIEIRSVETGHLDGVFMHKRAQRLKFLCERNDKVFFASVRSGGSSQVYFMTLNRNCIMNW

In order of falling pIC50:
1. Cn1cc(-c2cnc3c(-c4csc(C(=O)N[C@@H]5CCCC[C@@H]5N)c4)cnn3c2)cn1 (racemic)  8.22
2. O=C(NCC(F)(F)F)c1cc(-c2cnn3cc(-c4ccc(OCCN5CCCCC5)cc4)cnc23)cs1  7.89
3. Cn1cc(-c2cnc3c(-c4csc(C(=O)NCC(F)(F)F)c4)cnn3c2)cn1  7.66
4. Cc1sc(C(=O)N[C@@H]2[C@H](N)CCCC2(F)F)cc1-c1cnn2cc(Cl)cnc12  6.85

target: T3, Calcium/calmodulin-dependent protein kinase type IV (Homo sapiens, UniProt Q16566); assay: Inhibition of full-length recombinant human GST-tagged CAMK4 expressed in Escherichia coli by Z'-LYTE assay
T3 sequence (Q16566 whole entry): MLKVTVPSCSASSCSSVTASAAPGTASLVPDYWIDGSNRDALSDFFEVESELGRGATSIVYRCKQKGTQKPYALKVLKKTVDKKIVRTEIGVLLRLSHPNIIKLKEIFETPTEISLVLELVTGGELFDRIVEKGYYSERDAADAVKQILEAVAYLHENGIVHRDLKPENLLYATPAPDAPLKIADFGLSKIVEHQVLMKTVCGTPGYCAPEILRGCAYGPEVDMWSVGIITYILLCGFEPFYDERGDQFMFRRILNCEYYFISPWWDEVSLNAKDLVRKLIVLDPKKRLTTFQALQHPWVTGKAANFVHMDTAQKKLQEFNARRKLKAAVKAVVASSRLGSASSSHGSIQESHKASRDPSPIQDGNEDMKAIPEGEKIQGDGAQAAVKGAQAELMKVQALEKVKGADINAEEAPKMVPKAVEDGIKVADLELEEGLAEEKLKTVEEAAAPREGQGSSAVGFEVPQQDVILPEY

`Cn1cc(-c2cnc3c(-c4csc(C(=O)NCC(F)(F)F)c4)cnn3c2)cn1` and `Cn1cc(-c2cnc3c(-c4csc(C(=O)N[C@@H]5CCCC[C@@H]5N)c4)cnn3c2)cn1` (racemic) cannot be ordered by pIC50: less than 4.00 for the first, less than 5.00 for the second.

First: Cc1sc(C(=O)N[C@@H]2[C@H](N)CCCC2(F)F)cc1-c1cnn2cc(Cl)cnc12
Second: O=C(NCC(F)(F)F)c1cc(-c2cnn3cc(-c4ccc(OCCN5CCCCC5)cc4)cnc23)cs1
The pIC50 of the first is 0.28 log units higher: 4.54 for the first, 4.26 for the second.

target: Dual specificity tyrosine-phosphorylation-regulated kinase 1A (Homo sapiens, UniProt Q13627); assay: Inhibition of full-length recombinant human GST-tagged DYRK1A expressed in baculovirus expression system by Z'-LYTE assay

Going from `Cn1cc(-c2cnc3c(-c4csc(C(=O)NCC(F)(F)F)c4)cnn3c2)cn1` to `Cn1cc(-c2cnc3c(-c4csc(C(=O)N[C@@H]5CCCC[C@@H]5N)c4)cnn3c2)cn1` (racemic), the pIC50 rises from 7.96 to 8.49 (0.53 log units).

First: Cc1sc(C(=O)N[C@@H]2[C@H](N)CCCC2(F)F)cc1-c1cnn2cc(Cl)cnc12
Second: O=C(NCC(F)(F)F)c1cc(-c2cnn3cc(-c4ccc(OCCN5CCCCC5)cc4)cnc23)cs1
The pIC50 of the first is lower: 6.89 for the first, greater than 8.00 for the second. The second is the more potent here.

target: Rho-associated protein kinase 2 (Homo sapiens, UniProt O75116); assay: Inhibition of recombinant human N-terminal GST-tagged ROCK2 (1 to 552 residues) catalytic domain expressed in baculovirus expression system by Z'-LYTE assay
Sequence (O75116 whole entry, the tested form may be a part): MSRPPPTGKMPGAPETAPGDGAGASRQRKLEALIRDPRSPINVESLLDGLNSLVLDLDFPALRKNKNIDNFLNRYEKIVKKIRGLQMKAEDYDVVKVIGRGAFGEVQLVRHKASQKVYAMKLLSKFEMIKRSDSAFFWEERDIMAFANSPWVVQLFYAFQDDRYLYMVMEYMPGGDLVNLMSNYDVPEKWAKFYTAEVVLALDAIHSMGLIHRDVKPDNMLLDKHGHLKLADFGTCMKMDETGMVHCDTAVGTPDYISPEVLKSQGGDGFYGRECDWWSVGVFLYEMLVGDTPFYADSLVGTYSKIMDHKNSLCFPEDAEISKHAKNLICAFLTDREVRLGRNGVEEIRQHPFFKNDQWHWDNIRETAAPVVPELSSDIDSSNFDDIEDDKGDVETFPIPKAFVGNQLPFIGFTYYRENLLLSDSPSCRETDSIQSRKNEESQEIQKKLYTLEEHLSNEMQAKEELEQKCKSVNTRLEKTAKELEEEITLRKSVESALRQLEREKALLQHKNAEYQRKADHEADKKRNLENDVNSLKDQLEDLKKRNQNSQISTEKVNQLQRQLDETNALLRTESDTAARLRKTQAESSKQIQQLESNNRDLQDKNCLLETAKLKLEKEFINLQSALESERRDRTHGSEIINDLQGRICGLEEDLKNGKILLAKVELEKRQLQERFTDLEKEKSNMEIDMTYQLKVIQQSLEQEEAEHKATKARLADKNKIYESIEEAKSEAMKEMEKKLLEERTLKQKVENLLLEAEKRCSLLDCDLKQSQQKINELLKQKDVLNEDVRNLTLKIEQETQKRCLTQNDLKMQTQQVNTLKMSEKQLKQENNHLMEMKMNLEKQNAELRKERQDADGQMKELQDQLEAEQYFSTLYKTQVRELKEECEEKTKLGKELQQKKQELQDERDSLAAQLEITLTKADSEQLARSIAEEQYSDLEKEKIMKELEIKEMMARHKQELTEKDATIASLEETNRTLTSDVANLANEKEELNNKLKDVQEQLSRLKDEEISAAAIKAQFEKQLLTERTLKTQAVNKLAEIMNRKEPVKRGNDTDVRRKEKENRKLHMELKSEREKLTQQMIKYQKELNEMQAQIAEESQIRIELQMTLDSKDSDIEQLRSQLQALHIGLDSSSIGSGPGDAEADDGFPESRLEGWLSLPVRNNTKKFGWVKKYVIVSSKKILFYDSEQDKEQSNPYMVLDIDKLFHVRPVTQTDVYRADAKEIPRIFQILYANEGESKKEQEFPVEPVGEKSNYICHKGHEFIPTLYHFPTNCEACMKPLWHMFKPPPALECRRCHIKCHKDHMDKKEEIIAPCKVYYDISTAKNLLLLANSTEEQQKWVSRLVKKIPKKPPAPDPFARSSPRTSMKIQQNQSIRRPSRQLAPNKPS

In order of falling pIC50:
1. Cn1cc(-c2cnc3c(-c4csc(C(=O)N[C@@H]5CCCC[C@@H]5N)c4)cnn3c2)cn1 (racemic)  7.28
2. O=C(NCC(F)(F)F)c1cc(-c2cnn3cc(-c4ccc(OCCN5CCCCC5)cc4)cnc23)cs1  6.37
3. Cn1cc(-c2cnc3c(-c4csc(C(=O)NCC(F)(F)F)c4)cnn3c2)cn1  6.25
4. Cc1sc(C(=O)N[C@@H]2[C@H](N)CCCC2(F)F)cc1-c1cnn2cc(Cl)cnc12  5.96

target: Proto-oncogene tyrosine-protein kinase Src (Homo sapiens, UniProt P12931); assay: Inhibition of full-length recombinant human His-tagged SRC expressed in baculovirus expression system by Adapta assay
Sequence (P12931 2-536 limits assumed): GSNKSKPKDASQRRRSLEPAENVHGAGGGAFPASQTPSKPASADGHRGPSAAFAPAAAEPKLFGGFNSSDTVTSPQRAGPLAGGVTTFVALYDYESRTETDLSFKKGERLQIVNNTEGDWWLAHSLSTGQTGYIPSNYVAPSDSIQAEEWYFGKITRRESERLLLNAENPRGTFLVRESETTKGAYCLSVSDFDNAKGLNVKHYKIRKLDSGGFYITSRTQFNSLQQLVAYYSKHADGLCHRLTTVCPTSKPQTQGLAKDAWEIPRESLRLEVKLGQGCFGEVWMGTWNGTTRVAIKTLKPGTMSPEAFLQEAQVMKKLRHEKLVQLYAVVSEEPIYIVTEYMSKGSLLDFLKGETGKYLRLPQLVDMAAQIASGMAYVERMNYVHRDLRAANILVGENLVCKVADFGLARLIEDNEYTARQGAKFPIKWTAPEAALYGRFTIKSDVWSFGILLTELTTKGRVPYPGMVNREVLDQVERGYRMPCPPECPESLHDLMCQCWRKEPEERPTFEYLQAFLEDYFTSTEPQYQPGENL

In order of rising pIC50:
1. Cc1sc(C(=O)N[C@@H]2[C@H](N)CCCC2(F)F)cc1-c1cnn2cc(Cl)cnc12  5.09
2. Cn1cc(-c2cnc3c(-c4csc(C(=O)NCC(F)(F)F)c4)cnn3c2)cn1  7.38
3. O=C(NCC(F)(F)F)c1cc(-c2cnn3cc(-c4ccc(OCCN5CCCCC5)cc4)cnc23)cs1  7.43
4. Cn1cc(-c2cnc3c(-c4csc(C(=O)N[C@@H]5CCCC[C@@H]5N)c4)cnn3c2)cn1 (racemic)  8.52
